According to patent US20070142638A1, “Ornithine derivatives as prostaglandin e2 agonists or antagonists” (Astellas Pharma Inc., priority 2003, published 2007):

Biological target: T1, prostanoid receptor subtype (human EP4) (Homo sapiens, UniProt P35408)
T1 construct: expressed in transfected cells; host or cells: COS-7 cells (membrane fraction)
Experiment: Binding assay using membrane preparation with the expression of prostanoid receptor subtype
Conditions: test compound at 1.0×10^−8 M (10 nM); competition with [^3H]-PGE2 10 nM; membrane fraction of COS-7 cells transfected with human EP4
Description: The radioactivity associated with the filter was measured by liquid scintillation counting.
The following buffer was used in all reactions.

T1 sequence (P35408 whole entry): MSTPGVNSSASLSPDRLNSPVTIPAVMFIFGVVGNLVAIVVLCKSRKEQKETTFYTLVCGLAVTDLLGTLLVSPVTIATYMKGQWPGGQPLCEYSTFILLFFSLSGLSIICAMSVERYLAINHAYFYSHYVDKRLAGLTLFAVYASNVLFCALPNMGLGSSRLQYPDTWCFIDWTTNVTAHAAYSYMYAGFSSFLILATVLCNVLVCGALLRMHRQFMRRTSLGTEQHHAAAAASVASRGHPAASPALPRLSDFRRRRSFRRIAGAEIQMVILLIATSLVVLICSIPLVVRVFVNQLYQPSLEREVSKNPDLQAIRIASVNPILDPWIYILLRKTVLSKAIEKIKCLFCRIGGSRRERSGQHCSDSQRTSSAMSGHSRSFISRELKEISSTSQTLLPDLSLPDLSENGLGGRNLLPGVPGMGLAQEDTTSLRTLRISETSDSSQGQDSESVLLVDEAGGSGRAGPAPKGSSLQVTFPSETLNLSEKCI

inhibition at 0.01 µM: ≥ 80%
Structure (SMILES): O=C(O)CCCCCNC(=O)[C@H](CCCNC(=O)OCc1ccccc1)NC(=O)c1cc2ccccc2o1 [Example 23, Sodium 6-{(2S)-2-[(1-benzofuran-2-yl-carbonyl)-amino]-5-[benzyloxycarbonylamino]pentanoylamino}-hexanoate]
